Experimental data reported in PMC10112268, “Inhibition of Human Coronaviruses by Combinations of Host-Targeted and Direct-Acting Antivirals” (Antimicrobial Agents and Chemotherapy, 2023).
Where two headings read alike, the source gives them in different places.

Experiments:
[1] = in vitro; details: human, CC50 (MTT assay), Huh-7
[2] = system: HCoV-OC43; assay: Direct virucidal effect on virus particles; details: 10^5 PFU, 1 h at room temperature; LG 0 to 300 μM, VPA 0 to 300 mM
[3] = system: HCoV-229E-GFP; assay: Direct virucidal effect on virus particles; details: 10^5 PFU, 1 h at room temperature; LG 0 to 300 μM, VPA 0 to 300 mM
[4] = in vitro; details: human, CC50 (MTT assay), HCT-8
[5] = system: HCoV-229E-GFP; format: cell-based; details: at 16 μM LG; no drug 3.5 ± 0.6 × 10^6
[6] = long-term toxicity studies in rats and mice; cited from earlier work
[7] = system: TGEV; assay: Antiviral effect against TGEV in WSL or ST cells, plaque assay on ST; format: cell-based, swine coronavirus TGEV; details: LG in WSL cells, VPA in ST cells
Protocol: Figure S2. […] The inhibitory effect […]
of LG or VPA was assayed on triplicate cultures of TGEV-infected WSL (wild swine macrophage cell line) or ST (swine testis) cells, respectively. After 1 h-pre-incubation with AVs, triplicate cultures were infected with the corresponding virus, at a MOI of 2 PFU/cell, in a reduced volume of medium containing the AV, for 2h, virus inoculum removed and cells washed twice with medium, before the addition of drug-containing fresh medium (supplemented with 2% FBS). Cultures were then incubated for 24 h at 37 °C; total virus (intracellular and extracellular) production was evaluated by plaque assay on triplicate cultures of ST cells. Left y-axis represents infectious virus progeny at 24 hpi and right y-axis, cell viability determined by MTT assay of each corresponding cell line. IC50 values and SI values […]
[TGEV titers (PFU/ml): 1.1±0.1 x 108 in the absence of the drugs, […]
(1 picture or pasted object on this page, not shown here)

[8] = system: HCoV-229E-GFP; assay: Time of addition assay; format: cell-based; details: for IC50: Human coronavirus 229E, 24 hpi
[9] = system: SARS-CoV-2 isolate MAD6 (Wuhan-Hu-1 strain); assay: Time of addition assay; format: cell-based; details: for IC50: 24 hpi, read-out: IC50, SARS-CoV-2 production
[10] = system: HCoV-229E-GFP; assay: microbe, parasite or virus in culture; format: cell-based; details: for IC50: Human coronavirus 229E
[11] = system: SARS-CoV-2 isolate 39896362_AG (omicron strain); assay: microbe, parasite or virus in culture; format: cell-based; details: […], Fig. 1
[12] = system: HCoV-OC43; assay: Time of addition assay; format: cell-based; details: for IC50: 48 hpi
[13] = system: HCoV-OC43; assay: microbe, parasite or virus in culture; format: cell-based
[14] = in vitro; details: African green monkey
[15] = system: HCoV-229E, HCoV-OC43, and SARS-CoV-2; assay: Antiviral assays, summary over all tested HCoVs; format: cell-based, human coronaviruses
[16] = system: HCoV-OC43; format: cell-based; details: at 32 μM LG; no drug 3.2 ± 0.2 × 10^6
[17] = system: SARS-CoV-2 (MAD6); assay: Drug combination (synergy) study, virus yield in Calu3 2B4, CompuSyn; format: cell-based
[18] = system: SARS-CoV-2; assay: Direct virucidal effect on virus particles; details: 10^5 PFU, 1 h at room temperature; LG 0 to 300 μM, VPA 0 to 300 mM
[19] = system: FMDV; details: mouse, cited from earlier work
[20] = in vitro; details: human
[21] = system: SARS-CoV-2 isolate MAD6 (Wuhan-Hu-1 strain); assay: Virus yield inhibition in infected Calu3 2B4 cells, plaque assay on Vero E6; format: cell-based

Which CC50 ([1]; 24 h cell incubation with AV) does the source give for CCCCCCCCCCCCOC(=O)c1cc(O)c(O)c(O)c1 [LG, lauryl gallate] here?
The CC50 was 83.1 µM.

What about the CC50 ([1]; 48 h cell incubation with AV) of the same compound?
The CC50 was 55 µM.

What about the “direct virucidal effect (change in virus titers)” value [2] of the same compound?
Its value is “No decrease in virus titers”.

And the “direct virucidal effect (change in virus titers)” value [3]?
Its value is “No decrease in virus titers”.

And the CC50 ([4]; 24 h cell incubation with AV)?
The CC50 was 55 µM.

What about the CC50 ([4]; 48 h cell incubation with AV) of the same compound?
Its CC50 is 50.4 µM.

What about the HCoV-229E-GFP titers [5] of the same compound?
Its HCoV-229E-GFP titers is 5 ± 0.2 × 10^2 PFU/mL.

What about the “highest dose at which no effects were observed” value [6] of the same compound?
The value was 1,000 mg kg-1 of feed.

And the “inhibition of TGEV multiplication” value [7]?
Its value is “inhibited the multiplication”.

And the IC50 ([8]; read-out: IC50, HCoV-229E-GFP production, AV added 0 hpi)?
Its IC50 is 1.48 µM.

What about the IC50 ([8]; read-out: IC50, HCoV-229E-GFP production, AV added 2 hpi) of the same compound?
The IC50 was 2.05 µM.

And the IC50 ([8]; read-out: IC50, HCoV-229E-GFP production, AV added −3 hpi (1 h before adsorption))?
Its IC50 is 1.24 µM.

What about the HCoV-229E-GFP average titers ([8]; at 40 μM LG, average of addition times, no drug 4 ± 0.6 × 10^6) of the same compound?
Its HCoV-229E-GFP average titers is 6 ± 2 × 10^2 PFU/mL.

And the IC50 ([9]; Severe acute respiratory syndrome coronavirus 2, AV added 0 hpi)?
Its IC50 is 2.9 µM.

And the IC50 ([9]; Severe acute respiratory syndrome coronavirus 2, AV added 2 hpi)?
Its IC50 is 3.09 µM.

And the IC50 ([9]; Severe acute respiratory syndrome coronavirus 2, AV added −2 hpi (1 h before adsorption))?
The IC50 was 2.72 µM.

And the SARS-CoV-2 average titers ([9]; at 100 μM LG, average of addition times, no drug 3.4 ± 0.2 × 10^5)?
Its SARS-CoV-2 average titers is 5 ± 0.01 × 10^1 PFU/mL.

What about the “selectivity index (SI=CC50/IC50)” value [10] of the same compound?
Its value is 79.14.

And the IC50 ([10]; Huh-7, read-out: IC50, virus yield, Huh-7, AV from 1 h before adsorption, 24 hpi, Fig. 1)?
The IC50 was 1.05 ± 0.3 µM.

What about the IC50 ([10]; Huh-7, read-out: IC50, virus yield, specificity experiment (Fig. 3), Huh-7, 24 hpi) of the same compound?
The IC50 was 1.72 µM.

What about the HCoV-229E-GFP titers ([10]; at 100 μM, Fig. 3, no drug 4 ± 0.9 × 10^6) of the same compound?
The HCoV-229E-GFP titers was 5 ± 0.2 × 10^2 PFU/mL.

What about the HCoV-229E-GFP titers ([10]; at LG 40 μM, 24 hpi, no drug 3 ± 0.5 × 10^6, Fig. 1) of the same compound?
Its HCoV-229E-GFP titers is 1.4 ± 0.2 × 10^2 PFU/mL.

And the IC50 ([11]; Severe acute respiratory syndrome coronavirus 2, Vero C1008, Vero E6, omicron strain, AV from 1 h before adsorption, read-out: IC50, virus yield)?
Its IC50 is 1.36 ± 0.2 µM.

And the “SARS-CoV-2 isolate 39896362_AG titers” value ([11]; at LG 64 μM, no drug 1 ± 0.1 × 10^5)?
Its value is 5 ± 0.01 × 10^1 PFU/mL.

And the IC50 ([12]; Betacoronavirus 1, OC43, read-out: IC50, HCoV-OC43 production, AV added 0 hpi)?
The IC50 was 1.92 µM.

What about the IC50 ([12]; Betacoronavirus 1, OC43, read-out: IC50, HCoV-OC43 production, AV added 2 hpi) of the same compound?
The IC50 was 2.97 µM.

And the IC50 ([12]; Betacoronavirus 1, OC43, read-out: IC50, HCoV-OC43 production, AV added −3 hpi (1 h before adsorption))?
The IC50 was 1.79 µM.

What about the HCoV-OC43 average titers ([12]; at 40 μM LG, average of addition times, no drug 3.5 ± 0.5 × 10^6) of the same compound?
Its HCoV-OC43 average titers is 5 ± 0.01 × 10^1 PFU/mL.

And the “selectivity index (SI=CC50/IC50)” value [13]?
The value was 33.74.

What about the IC50 ([13]; Betacoronavirus 1, OC43, Huh-7, read-out: IC50, virus yield, Huh-7, AV from 1 h before adsorption, 48 hpi, Fig. 1) of the same compound?
Its IC50 is 1.63 ± 0.6 µM.

What about the IC50 ([13]; Betacoronavirus 1, OC43, Huh-7, read-out: IC50, virus yield, specificity experiment (Fig. 3), Huh-7, 48 hpi) of the same compound?
The IC50 was 1.14 µM.

What about the HCoV-OC43 titers ([13]; at 100 μM, Fig. 3, no drug 1.8 ± 0.9 × 10^6) of the same compound?
The HCoV-OC43 titers was 5 ± 0.01 × 10^1 PFU/mL.

And the HCoV-OC43 titers ([13]; at LG 40 μM, 48 hpi, no drug 3.1 ± 0.9 × 10^6, Fig. 1)?
The HCoV-OC43 titers was 5 ± 0.01 × 10^1 PFU/mL.

What about the CC50 [14] of the same compound?
Its CC50 is 90.9 µM.

What about the “SI values for all tested HCoVs” value [15] of the same compound?
The value was “above 30”.

What about the IC50 ([15]; average over all tested HCoVs, read-out: average IC50 value) of the same compound?
The IC50 was 1.6 µM.

And the IC50 ([15]; range over tested HCoVs, read-out: IC50 values, range over HCoVs)?
The IC50 was 1 to 2 µM.

And the HCoV-OC43 titers [16]?
Its HCoV-OC43 titers is 2.2 ± 0.2 × 10^3 PFU/mL.

And the SARS-CoV-2 titers ([17]; at 16 μM LG, no drug 3.2 ± 0.2 × 10^5)?
The SARS-CoV-2 titers was 6 ± 0.2 × 10^3 PFU/mL.

What about the “average DRI” value ([17]; for the named drug over its combinations, at Fa = 0.5 to 0.95) of the same compound?
The value was 4.25.

And the “direct virucidal effect (change in virus titers)” value [18]?
The value was “No decrease in virus titers”.

And the “toxicity to the animals” value ([19]; in vivo)?
The value was “not found to be toxic”.

What about the “in vivo antiviral effect against FMDV” value [19] of the same compound?
Its value is “reducing FMDV-induced mortality and viral load in mice”.

What about the CC50 [20] of the same compound?
The CC50 was 124 µM.

And the IC50 ([21]; Severe acute respiratory syndrome coronavirus 2, Calu-3 2B4, read-out: IC50, virus yield, Calu3 2B4, Wuhan-Hu-1 strain, AV from 1 h before adsorption, 24 hpi, Fig. 1)?
Its IC50 is 2.26 ± 0.5 µM.

What about the SARS-CoV-2 titers ([21]; at 100 μM, Fig. 3, no drug 3.±0.1 × 10^5) of the same compound?
The SARS-CoV-2 titers was 1 ± 0.1 × 10^2 PFU/mL.

What about the “SARS-CoV-2 isolate MAD6 titers” value ([21]; at LG 100 μM, 24 hpi, no drug 3.4 ± 1 × 10^5, Fig. 1) of the same compound?
The value was 5 ± 0.01 × 10^1 PFU/mL.
